Experimental data published in article PMC12790326, “Water Networks as Hydrophobic Recognition Motifs in Proteins” (Angewandte Chemie (International Ed. in English), 2025).

Legend:
BRD4(1) = target: T1, BRD4(1) (Homo sapiens, UniProt O60885); assay: TR-FRET binding assay: displacement of tetra-acetylated histone H4 peptide; conditions: for loss of efficacy/affinity with respect to 1: TR-FRET; for IC50: displacement of tetra-acetylated H4 peptide from BRD4(1), duplicate, best fit; for TR-FRET IC50 (fold change): fold change of IC50 relative to compound 1
T1 construct: encodes residues 44-168; His6 (TEV-cleavable); made in house; host or cells: Escherichia coli BL21 (DE3)
Excerpt: Supplementary Information
Figure S3: Normalized TR-FRET assay showing dose-dependently displacement of a tetra-acetylated H4 peptide from Brd4(BD1) in the presence of compounds 2-5. IC50 values corresponding to best fit are reported inside each graph. […]
simultaneously. Each dot represents the average of two independent replicas, and the error bars correspond to their standard deviation.
The BRD4(1) construct was a kind donation of Dr. Alessio Ciulli (University of Dundee, UK) and it encodes residues 44-168. The cloned his-tagged BRD4(1) was expressed in Escherichia coli BL21 (DE3).
For biophysical assays, the protein puriﬁcation procedure consisted of immobilised metal ion aﬃnity chromatography (IMAC), followed by TEV cleavage of the histidine tag and a second IMAC chromatography. For crystallisation assays, the puriﬁcation protocol involved IMAC chromatography, followed by TEV cleavage and size-exclusion chromatography for crystallography. The expression and puriﬁcation has already been described.[25]
The Time-Resolved Fluorescence Resonance Energy Transfer (TR-FRET) binding assay used to measure the disruption of the interaction of BRD4(1) with [Lys(Ac)5/8/12/16]-Histone H4 (1-21)-GGK(Biotin) (Eurogentec) with compounds 1-5, was performed according to a previously described protocol.[26] The experiments were performed in 384-well black plates (NUNC) in a buﬀer composed of 50 mM HEPES, pH 7.4, 50 mM NaCl, 400 mM KF (Sigma), 0.5 mM CHAPS (Sigma), and 0.05% BSA (Sigma) in a ﬁnal volume of 100 μL. BRD4(1) (100 nM) protein domain was mixed with 200 nM of the biotin-labelled histone peptides and incubated for 30 min at room temperature. Molecules were prepared in 250 mM HEPES, pH 7.4, 250 mM NaCl, and 20% DMSO at a single concentration to give a ﬁnal concentration of 50 μM 1% DMSO in a total well volume of 100 μL and incubated for 1 h. Molecules showing inhibition were then screened in duplicate at several serial dilutions. Inhibition (%) at 50 μM was calculated with […]
where the negative control was run without BRD4(1) and inhibitor and positive control, without inhibitor to give the bottom signal and top signal, respectively. The protein−peptide complexes at equilibrium were then detected with 2 nM Eu3+ cryptate-conjugated streptavidin (CisBio) and 10 nM anti-his6-XL665 (CisBio). Titration of a known inhibitor ((+)-JQ1) was used as the control for each experiment. IC50 values were calculated by plotting the log [competitor/inhibitor] versus the mean normalised response data from a single experiment measured in duplicate and ﬁtting it to a four-parameter equation with variable Hill slope, using the GraphPad Prism software: […]
The plates were measured in a CLARIOStar reader (BMG Labtech) using the homogeneous time-resolved ﬂuorescence module (excitation, 337 nm with 200 ﬂashes; emission, 620 and 665 nm). The 665 nm/620 nm ratios were converted to % normalised TR-FRET ratio = top ratio signal as 100% and […]
bottom ratio signal as 0% to normalise experiments performed at diﬀerent days. Dose−response […]
2. Data Collection and Structure Solution.
X-ray diffraction data were collected on beamlines I03 and I04-1 at the Diamond Light Source. Data were integrated with XDS[27] and scaled with AIMLESS[28] as part of the XIA2 and autoPROC auto-processing pipelines.[29,30] Initial refinement and map calculation was carried out with DIMPLE[31] using a ligand-free version of BRD4(1) (PDB 3MXF[25]) as starting model. Ligand restraints were generated with ACEDRG[32] and GRADE.[33] Refinement and model building was performed with REFMAC[34] and COOT,[35] respectively. Structure validation was performed with MolProbity.[36] Final models and structure factors have been deposited with PDB accession codes 9QOB and 9QNV. Data […]
1) Protein and Ligand Preparation
Ligand 1 was co-crystallized in the previous study[9] with PDB code 6ZF9. The ligand pose was extracted from the PDB and missing hydrogens were added with MOE.[37] […]

PDE4D [1] = tested on: PDE4D; set-up: method as in PMID 15685167; conditions: with the phenyl ring; the analogue without it has 82 µM; read-out: affinity for PDE4D (IC50); cited from earlier work
PDE4D [2] = assay: PDE4D inhibition (literature IC50); format: biochemical; conditions: gain from the phenyl ring of 3DE (82 µM to 270 nM)

loss of efficacy/affinity with respect to 1 (BRD4(1)) [fold] | IC50 (BRD4(1)) [µM] | TR-FRET IC50 (fold change) (BRD4(1)) [x] | SMILES | IC50 (PDE4D [1]) [µM] | ΔΔG bind (PDE4D [2]) [kcal/mol]
2 | 54 | 2 | Cc1nnc2scc(-c3ccccc3)n12 [Compound 2] |  | 
 |  |  | CCOC(=O)c1c(C)nn(-c2ccccc2)c1C [Compound 3DE] | 0.27 | 3.4
3 | 85 | 3.3 | COCc1nnc2scc(-c3ccccc3)n12 [Compound 3] |  | 
2.5 | 65 | 2.5 | OCc1nnc2scc(-c3ccccc3)n12 [Compound 4] |  | 
